Test results: US5705102A, “Photochromic spironaphthopyran compounds” (Vision-Ease Lens, Inc., priority 1995, dated 1998)

Experiments:
[1] = Determination of maximum absorption wavelength (λmax) after UV irradiation in solution; format: physicochemical; conditions: for λmax: chloroform, irradiated with ultraviolet light with a maximum wavelength of 350 nanometers
Protocol: (§1) Each of the photochromic compounds (compound P) formed in step 2 of Examples 1-13 and Comparative Example 1 were independently dissolved in separate containers of chloroform. Additionally, a purchased sample of 3,3-diphenyl-naphtho-3H[2,1-b]pyran, identified as Comparative Example 2, was dissolved in a separate container of chloroform.
(§2) Each of the chloroform-dissolved photochromic compounds of Examples 1-13 and Comparative Examples 1-2 were then irradiated with ultraviolet light with a maximum wavelength of 350 nanometers and were measured for maximum absorption wavelength) λmax. The fade time, T1/2 was then determined for each of the irradiated compounds. The fade time for a particular chloroform dissolved photochromic compound is defined as the time interval, at room temperature (72° F.), for the absorbance of the activated form of the chloroform-dissolved photochromic compound to decrease to 1/2 of the maximum absorbance, after the photochromic compound is isolated from the activating source of ultraviolet light. The maximum absorption wavelength and fade time determined for each of the irradiated photochromic compounds of Examples 1-13 and Comparative Examples 1-2 are presented in Table 1: […]

[2] = Determination of fade time T1/2 after isolation from the activating UV light; format: physicochemical; set-up: key: *: Fades too fast to obtain readings; conditions: chloroform, room temperature (72° F.)
Protocol: as §1, §2

[3] = Determination of maximum absorption wavelength (λmax) after UV irradiation in solution; format: physicochemical; set-up: key: *: Fades too fast to obtain readings; conditions: cyclohexane
[4] = U.S. Pat. No. 3,567,605 to Becker; cited from earlier work
[5] = Color of the compound or blend when activated by ultraviolet light; format: physicochemical
[6] = absorbance of activated form to decrease to 1/2 of maximum

λmax [1] [Nanometers] | λmax [3] [Nanometers] | Structure (SMILES) | T1/2 (fade time) [2, 6] [s] | other results
476 | – | COc1ccc2c3c(ccc2c1)OC1(C=C3)c2ccccc2CC(c2ccccc2)C1c1ccccc1 (stereo not drawn) [Example 5] | 13 | –
445 | 438 | C1=CC2(Oc3ccc4ccccc4c31)c1ccccc1-c1ccccc12 [Example 9, spiro(3H-naphtho[2,1-b]pyran-3,9'-fluorene)] | 10 | maximum wavelengths of activation, compared with Comparative Example 2 ([1]; vs 3,3-diphenyl-naphtho-3H[2,1-b]pyran): longer maximum wavelengths of activation
435 | 415 | C1=CC(c2ccccc2)(c2ccccc2)Oc2ccc3ccccc3c21 [Comparative Example 2, 3,3-diphenyl-naphtho-3H[2,1-b]pyran, reference compound] | 13 | photochromism [4]: photochromic at room temperature
445 | – | COc1ccc2c3c(ccc2c1)OC1(C=C3)CCCc2cc(OC)c(OC)cc21 (stereo not drawn) [Example 3, 6',7'-dimethoxy-8-methoxyspiro(3H-naphtho[2,1-b]pyran-3,1'-tetralone)] | – | λmax ([3]; symbol, no reading): *; T1/2 (fade time) ([2]; symbol, no reading): *
468 | – | COc1ccc2c3c(ccc2c1)OC1(C=C3)c2ccccc2CCC1C (stereo not drawn) [Example 6, 2'-methyl-8-methoxyspiro(3H-naphtho[2,1-b]pyran-3,1'-tetralone)] | 1.2 | –
472 | 451 | COc1ccc2c3c(ccc2c1)OC(c1ccccc1)(c1ccccc1)C=C3 [Comparative Example 1, 3,3-diphenyl-8-methoxy-3H-naphtho[2,1-b]pyran, reference compound] | 10 | –
492 | 478 | COc1ccc2c3c(ccc2c1)OC1(C=C3)c2ccccc2-c2ccccc21 [Example 1, 8-methoxyspiro(3H-naphtho [2,1-b]pyran-3,9'-fluorene)] | 20 | color when activated by ultraviolet light [5]: deep shade of orange; color of blend with blue-turning photochromic compounds when activated by ultraviolet radiation ([5]; blended with blue-turning photochromic compounds, such as substituted spiroindolino naphthoxazine): desirable, intense shade of gray; activated maximum wavelength of absorption ([1]; dissolved in chloroform, irradiated with ultraviolet light): about 492 nanometers; maximum wavelength of activation, compared with Comparative Example 1 ([1]; vs 3,3-diphenyl-8-methoxy-3H-naphtho[2,1-b]pyran): longer maximum wavelength of activation
478 | – | COc1ccc2c3c(ccc2c1)OC1(C=C3)c2ccccc2CC1C (stereo not drawn) [Example 7, 2'-methyl-8-methoxyspiro(3H-naphtho[2,1-b]pyran-3,1'-indan)] | 396 | –
512 | – | COc1ccc2c3c(ccc2c1)OC1(C=C3)C(c2ccccc2)=C(c2ccccc2)c2ccccc21 (stereo not drawn) [Example 8, 2',3'-diphenyl-8-methoxyspiro(3H-naphtho[2,1-b]pyran-3,1'-indene)] | 64 | –
444 | – | CC1CCc2ccccc2C12C=Cc1c(ccc3ccccc13)O2 (stereo not drawn) [Example 11, 2'-methylspiro(3H-naphtho[2,1-b]pyran-3,1'-tetralone)] | – | T1/2 (fade time) ([2]; symbol, no reading): *
454 | – | C1=CC2(Oc3ccc4ccccc4c31)C(c1ccccc1)=C(c1ccccc1)c1ccccc12 (stereo not drawn) [Example 13] | 35 | –
474 | 465 | COc1ccc2c3c(ccc2c1)OC1(C=C3)CCCc2ccccc21 (stereo not drawn) [Example 2, 8-methoxyspiro(3H-naphtho[2,1-b]pyran-3,1'-tetralone)] | 15 | –
